# Source: US8512734B2, “Biocompatible coating of medical devices” (Katholieke Universiteit Leuven, K.U.Leuven R&D, priority 2004, dated 2013)
# Experiment: In-vitro release of β-estradiol from loaded zeogrid in simulated body fluid (HPLC)
# Type: physicochemical
# Settings: 10 mg loaded zeogrid in 20 ml SBF, room temperature, continuous stirring
# Method: Loading of the zeogrid sample with β-estradiol proceeds as follows. 50 mg β-estradiol is dissolved in 100 ml methylenechloride. 500 mg of zeogrid is suspended in the solution. Everything is stirred during 24 hours in a closed container. After 24 hours, the container is opened and the methylenechloride is evaporated at room temperature. The resulting powder is further dried and kept during 24 hours under reduced pressure to remove the solvent.
# Release of β-estradiol from zeogrids. Simulated body fluid (SBF) was used as dissolution medium. SBF was prepared by first dissolving 1% SLS (Sodium lauryl sulphate) and 0.90% NaCl in distilled water. The solution was mixed with ethanol in a volume ratio solution:ethanol of 24:1.
# The in-vitro release experiments were carried out at room temperature by dispersing 10 mg quantities of the loaded zeogrid into 20 ml quantities of SBF. In order to avoid limitations of the delivery rate by external diffusion constraints, continuous stirring is maintained. The release profile was obtained by measuring drug concentration in the fluid after different times by means of HPLC.
structure (smiles),measurement,value
C[C@]12CC[C@@H]3c4ccc(O)cc4CC[C@H]3[C@@H]1CC[C@@H]2O [β-estradiol],Time after which release of β-estradiol from zeogrid is completed,30 min
